# Results reported in ChEMBL document CHEMBL5723582, “Data for DCP probe T-10430” (2024).
# How the values were obtained:
# [1] = target: G-protein coupled receptor 55 (Homo sapiens) (UniProt Q9Y2T6); experiment: RLU of GPR55 at 1.0 µM in the […] PRESTO-Tango GPCRome screen; details: Compound concentration 1.0 uM
# [2] = target: Adhesion G protein-coupled receptor L4 (Homo sapiens) (UniProt Q9HBW9); experiment: RLU of ELTD1 at 1.0 µM in the […] PRESTO-Tango GPCRome screen; details: Compound concentration 1.0 uM
# [3] = target: C3a anaphylatoxin chemotactic receptor (Homo sapiens) (UniProt Q16581); experiment: RLU of C3AR1 at 1.0 µM in the […] PRESTO-Tango GPCRome screen; details: Compound concentration 1.0 uM
# Sequence of C3a anaphylatoxin chemotactic receptor (Homo sapiens) (Q16581 whole entry): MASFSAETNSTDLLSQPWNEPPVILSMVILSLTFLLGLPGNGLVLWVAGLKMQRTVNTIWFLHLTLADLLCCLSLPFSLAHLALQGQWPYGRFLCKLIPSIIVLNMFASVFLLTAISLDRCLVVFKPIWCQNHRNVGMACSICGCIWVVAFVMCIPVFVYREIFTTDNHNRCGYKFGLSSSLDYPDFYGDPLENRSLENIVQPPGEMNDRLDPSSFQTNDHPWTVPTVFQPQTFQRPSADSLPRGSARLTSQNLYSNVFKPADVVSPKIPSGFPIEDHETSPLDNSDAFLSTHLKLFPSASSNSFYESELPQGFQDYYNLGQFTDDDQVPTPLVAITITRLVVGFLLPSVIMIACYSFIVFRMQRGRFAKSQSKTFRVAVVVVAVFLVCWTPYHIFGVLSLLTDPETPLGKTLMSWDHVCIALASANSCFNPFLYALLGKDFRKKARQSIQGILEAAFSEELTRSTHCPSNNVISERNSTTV
# [4] = target: T1, Type-1 angiotensin II receptor (Homo sapiens, UniProt P30556); experiment: IP-One assay (AGTR1), agonist mode at up to 50 µM; type: functional; set-up: compound concentration < 50 uM
# T1 sequence (P30556 whole entry): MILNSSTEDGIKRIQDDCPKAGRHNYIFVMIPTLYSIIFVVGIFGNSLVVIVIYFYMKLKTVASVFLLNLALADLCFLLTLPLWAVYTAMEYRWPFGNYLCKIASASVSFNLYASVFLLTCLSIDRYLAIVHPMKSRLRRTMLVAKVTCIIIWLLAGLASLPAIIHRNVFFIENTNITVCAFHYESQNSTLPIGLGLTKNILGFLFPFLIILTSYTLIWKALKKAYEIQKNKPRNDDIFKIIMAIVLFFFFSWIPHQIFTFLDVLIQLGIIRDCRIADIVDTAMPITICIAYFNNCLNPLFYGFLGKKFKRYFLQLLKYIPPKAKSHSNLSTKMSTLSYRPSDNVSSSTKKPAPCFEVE
# [5] = target: P2Y purinoceptor 14 (Homo sapiens) (UniProt Q15391); experiment: RLU of P2RY14 at 1.0 µM in the […] PRESTO-Tango GPCRome screen; details: Compound concentration 1.0 uM
# [6] = target: Melatonin-related receptor (Homo sapiens) (UniProt Q13585); experiment: RLU of GPR50 at 1.0 µM in the […] PRESTO-Tango GPCRome screen; details: Compound concentration 1.0 uM
# [7] = target: G-protein coupled receptor 12 (Homo sapiens) (UniProt P47775); experiment: RLU of GPR12 at 1.0 µM in the […] PRESTO-Tango GPCRome screen; details: Compound concentration 1.0 uM
# [8] = target: Platelet-activating factor receptor (Homo sapiens) (UniProt P25105); experiment: RLU of PTAFR at 1.0 µM in the […] PRESTO-Tango GPCRome screen; details: Compound concentration 1.0 uM
# [9] = target: Galanin receptor type 2 (Homo sapiens) (UniProt O43603); experiment: RLU of GAL2 at 1.0 µM in the […] PRESTO-Tango GPCRome screen; details: Compound concentration 1.0 uM
# [10] = target: Mu-type opioid receptor (Homo sapiens) (UniProt P35372); experiment: RLU of OPRM1 at 1.0 µM in the […] PRESTO-Tango GPCRome screen; details: Compound concentration 1.0 uM
# Sequence of Mu-type opioid receptor (Homo sapiens) (P35372 whole entry): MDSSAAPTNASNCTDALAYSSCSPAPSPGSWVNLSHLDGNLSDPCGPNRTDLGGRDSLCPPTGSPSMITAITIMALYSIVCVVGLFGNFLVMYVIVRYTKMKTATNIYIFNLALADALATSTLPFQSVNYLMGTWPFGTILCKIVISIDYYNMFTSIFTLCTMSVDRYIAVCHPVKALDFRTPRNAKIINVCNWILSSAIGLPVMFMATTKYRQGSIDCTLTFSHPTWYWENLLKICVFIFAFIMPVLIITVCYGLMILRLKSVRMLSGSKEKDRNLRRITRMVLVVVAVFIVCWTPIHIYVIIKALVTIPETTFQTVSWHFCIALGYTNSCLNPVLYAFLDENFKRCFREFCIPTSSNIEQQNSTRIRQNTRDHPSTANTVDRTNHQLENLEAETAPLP
# [11] = target: Melatonin receptor type 1B (Homo sapiens) (UniProt P49286); experiment: RLU of MTNR1B at 1.0 µM in the […] PRESTO-Tango GPCRome screen; details: Compound concentration 1.0 uM
# [12] = target: P2Y purinoceptor 13 (Homo sapiens) (UniProt Q9BPV8); experiment: RLU of P2RY13 at 1.0 µM in the […] PRESTO-Tango GPCRome screen; details: Compound concentration 1.0 uM
# Sequence of P2Y purinoceptor 13 (Homo sapiens) (Q9BPV8 whole entry): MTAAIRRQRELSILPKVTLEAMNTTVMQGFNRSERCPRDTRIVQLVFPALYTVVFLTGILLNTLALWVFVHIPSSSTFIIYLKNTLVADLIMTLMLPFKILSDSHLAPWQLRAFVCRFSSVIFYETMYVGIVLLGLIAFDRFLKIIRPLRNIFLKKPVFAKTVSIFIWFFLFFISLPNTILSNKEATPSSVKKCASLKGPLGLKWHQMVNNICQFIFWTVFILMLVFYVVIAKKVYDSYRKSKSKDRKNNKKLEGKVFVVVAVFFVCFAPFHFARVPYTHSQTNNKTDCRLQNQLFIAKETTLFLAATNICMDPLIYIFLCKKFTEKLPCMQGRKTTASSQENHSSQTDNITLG
# [13] = target: 5-hydroxytryptamine receptor 1A (Homo sapiens) (UniProt P08908); experiment: RLU of HTR1A at 1.0 µM in the Aequorin PRESTO-Tango GPCRome screen; details: Compound concentration 1.0 uM
# [14] = target: N-formyl peptide receptor 3 (Homo sapiens) (UniProt P25089); experiment: RLU of FPR3 at 1.0 µM in the […] PRESTO-Tango GPCRome screen; details: Compound concentration 1.0 uM
# Sequence of N-formyl peptide receptor 3 (Homo sapiens) (P25089 whole entry): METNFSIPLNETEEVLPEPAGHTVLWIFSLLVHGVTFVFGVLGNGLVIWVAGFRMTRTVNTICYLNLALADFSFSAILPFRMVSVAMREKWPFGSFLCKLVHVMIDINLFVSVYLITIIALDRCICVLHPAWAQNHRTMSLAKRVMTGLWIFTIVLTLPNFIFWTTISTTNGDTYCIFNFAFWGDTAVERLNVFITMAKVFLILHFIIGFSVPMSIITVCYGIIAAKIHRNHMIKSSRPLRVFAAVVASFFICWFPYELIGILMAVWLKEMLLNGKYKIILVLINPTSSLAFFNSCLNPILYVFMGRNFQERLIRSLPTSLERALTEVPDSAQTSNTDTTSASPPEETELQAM
# [15] = target: Probable G-protein coupled receptor 19 (Homo sapiens) (UniProt Q15760); experiment: RLU of GPR19 at 1.0 µM in the […] PRESTO-Tango GPCRome screen; details: Compound concentration 1.0 uM
# [16] = target: Probable G-protein coupled receptor 45 (Homo sapiens) (UniProt Q9Y5Y3); experiment: RLU of GPR45 at 1.0 µM in the […] PRESTO-Tango GPCRome screen; details: Compound concentration 1.0 uM
# [17] = target: G-protein coupled receptor family C group 6 member A (Homo sapiens) (UniProt Q5T6X5); experiment: RLU of GPRC6A at 1.0 µM in the […] PRESTO-Tango GPCRome screen; details: Compound concentration 1.0 uM
# [18] = target: Metabotropic glutamate receptor 4 (Homo sapiens) (UniProt Q14833); experiment: RLU of GRM4 at 1.0 µM in the Aequorin PRESTO-Tango GPCRome screen; details: Compound concentration 1.0 uM
# [19] = target: G-protein coupled receptor 39 (Homo sapiens) (UniProt O43194); experiment: RLU of GPR39 at 1.0 µM in the […] PRESTO-Tango GPCRome screen; details: Compound concentration 1.0 uM
# [20] = target: Adhesion G-protein coupled receptor G1 (Homo sapiens) (UniProt Q9Y653); experiment: RLU of GPR56 at 1.0 µM in the […] PRESTO-Tango GPCRome screen; details: Compound concentration 1.0 uM
# [21] = target: Leukotriene B4 receptor 1 (Homo sapiens, UniProt Q15722); experiment: RLU of LTB4R at 1.0 µM in the […] PRESTO-Tango GPCRome screen; details: Compound concentration 1.0 uM
# [22] = target: Secretin receptor (Homo sapiens) (UniProt P47872); experiment: RLU of SCTR at 1.0 µM in the […] PRESTO-Tango GPCRome screen; details: Compound concentration 1.0 uM
# [23] = target: Mas-related G-protein coupled receptor member X2 (Homo sapiens) (UniProt Q96LB1); experiment: RLU of MRGPRX2 at 1.0 µM in the […] PRESTO-Tango GPCRome screen; details: Compound concentration 1.0 uM
# [24] = target: Cannabinoid receptor 2 (Homo sapiens) (UniProt P34972); experiment: RLU of CNR2 at 1.0 µM in the […] PRESTO-Tango GPCRome screen; details: Compound concentration 1.0 uM
# Sequence of Cannabinoid receptor 2 (Homo sapiens) (P34972 whole entry): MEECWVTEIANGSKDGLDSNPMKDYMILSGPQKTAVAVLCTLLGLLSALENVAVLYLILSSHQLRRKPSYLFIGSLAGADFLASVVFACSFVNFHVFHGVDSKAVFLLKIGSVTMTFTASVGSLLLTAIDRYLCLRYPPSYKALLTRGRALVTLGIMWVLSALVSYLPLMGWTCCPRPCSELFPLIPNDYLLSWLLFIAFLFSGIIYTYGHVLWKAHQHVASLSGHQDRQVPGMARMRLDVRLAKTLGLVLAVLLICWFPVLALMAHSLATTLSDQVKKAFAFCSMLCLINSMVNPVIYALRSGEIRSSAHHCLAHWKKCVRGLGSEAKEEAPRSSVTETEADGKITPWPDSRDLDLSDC
# [25] = target: Alpha-1A adrenergic receptor (Homo sapiens) (UniProt P35348); experiment: RLU of ADRA1A at 1.0 µM in the […] PRESTO-Tango GPCRome screen; details: Compound concentration 1.0 uM
# [26] = target: G-protein coupled receptor 146 (Homo sapiens) (UniProt Q96CH1); experiment: RLU of GPR146 at 1.0 µM in the […] PRESTO-Tango GPCRome screen; details: Compound concentration 1.0 uM
# [27] = target: Adenosine receptor A3 (Homo sapiens) (UniProt P0DMS8); experiment: RLU of ADORA3 at 1.0 µM in the […] PRESTO-Tango GPCRome screen; details: Compound concentration 1.0 uM
# [28] = target: G-protein coupled receptor 61 (Homo sapiens) (UniProt Q9BZJ8); experiment: RLU of GPR61 at 1.0 µM in the […] PRESTO-Tango GPCRome screen; details: Compound concentration 1.0 uM
# Sequence of G-protein coupled receptor 61 (Homo sapiens) (Q9BZJ8 whole entry): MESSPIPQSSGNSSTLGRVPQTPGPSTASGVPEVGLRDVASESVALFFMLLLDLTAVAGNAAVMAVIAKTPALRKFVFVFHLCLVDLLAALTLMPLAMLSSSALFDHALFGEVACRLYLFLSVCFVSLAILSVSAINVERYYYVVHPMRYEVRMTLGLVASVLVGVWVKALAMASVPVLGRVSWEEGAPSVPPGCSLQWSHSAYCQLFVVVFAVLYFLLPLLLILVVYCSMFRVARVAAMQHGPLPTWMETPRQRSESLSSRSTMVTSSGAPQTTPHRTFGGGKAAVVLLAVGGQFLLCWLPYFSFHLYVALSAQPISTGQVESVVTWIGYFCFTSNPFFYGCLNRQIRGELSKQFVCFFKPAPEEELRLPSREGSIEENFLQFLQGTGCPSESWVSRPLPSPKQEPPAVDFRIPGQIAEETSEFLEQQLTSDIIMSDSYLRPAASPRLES
# [29] = target: Probable G-protein coupled receptor 34 (Homo sapiens) (UniProt Q9UPC5); experiment: RLU of GPR34 at 1.0 µM in the […] PRESTO-Tango GPCRome screen; details: Compound concentration 1.0 uM
# Sequence of Probable G-protein coupled receptor 34 (Homo sapiens) (Q9UPC5 whole entry): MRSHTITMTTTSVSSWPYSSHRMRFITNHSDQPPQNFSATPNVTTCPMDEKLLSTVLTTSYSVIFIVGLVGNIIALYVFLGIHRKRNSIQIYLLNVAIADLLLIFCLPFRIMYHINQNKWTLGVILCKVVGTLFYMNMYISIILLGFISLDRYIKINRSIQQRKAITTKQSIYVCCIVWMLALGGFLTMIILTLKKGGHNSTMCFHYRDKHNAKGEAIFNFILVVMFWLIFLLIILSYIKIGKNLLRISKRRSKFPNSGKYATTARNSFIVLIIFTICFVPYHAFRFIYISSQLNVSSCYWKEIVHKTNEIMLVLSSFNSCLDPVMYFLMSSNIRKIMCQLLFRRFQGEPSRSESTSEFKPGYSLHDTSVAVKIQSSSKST
# [30] = target: Neuropeptide Y receptor type 1 (Homo sapiens) (UniProt P25929); experiment: RLU of NPY1R at 1.0 µM in the […] PRESTO-Tango GPCRome screen; details: Compound concentration 1.0 uM
# Sequence of Neuropeptide Y receptor type 1 (Homo sapiens) (P25929 whole entry): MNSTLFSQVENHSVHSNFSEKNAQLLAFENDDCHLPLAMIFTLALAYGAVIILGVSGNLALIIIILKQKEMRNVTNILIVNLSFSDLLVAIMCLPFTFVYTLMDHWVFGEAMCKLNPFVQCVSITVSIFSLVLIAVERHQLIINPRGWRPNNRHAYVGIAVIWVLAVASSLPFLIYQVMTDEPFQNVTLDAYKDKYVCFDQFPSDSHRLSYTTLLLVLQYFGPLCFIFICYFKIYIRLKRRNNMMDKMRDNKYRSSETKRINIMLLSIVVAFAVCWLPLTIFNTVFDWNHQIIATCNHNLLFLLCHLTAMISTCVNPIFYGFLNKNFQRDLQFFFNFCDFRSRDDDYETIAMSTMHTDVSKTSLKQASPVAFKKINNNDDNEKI
# [31] = target: Probable G-protein coupled receptor 132 (Homo sapiens) (UniProt Q9UNW8); experiment: RLU of G2A at 1.0 µM in the […] PRESTO-Tango GPCRome screen; details: Compound concentration 1.0 uM
# Sequence of Probable G-protein coupled receptor 132 (Homo sapiens) (Q9UNW8 whole entry): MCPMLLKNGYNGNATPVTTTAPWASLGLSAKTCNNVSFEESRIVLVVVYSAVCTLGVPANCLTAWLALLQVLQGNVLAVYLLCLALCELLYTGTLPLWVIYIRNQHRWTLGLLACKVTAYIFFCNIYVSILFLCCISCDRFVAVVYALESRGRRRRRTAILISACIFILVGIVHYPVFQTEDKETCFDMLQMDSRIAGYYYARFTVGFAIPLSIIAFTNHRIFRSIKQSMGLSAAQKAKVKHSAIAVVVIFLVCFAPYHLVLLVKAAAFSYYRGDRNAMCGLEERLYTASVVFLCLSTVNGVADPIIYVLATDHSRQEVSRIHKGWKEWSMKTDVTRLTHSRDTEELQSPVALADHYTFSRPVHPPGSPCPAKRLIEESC
# [32] = target: Adhesion G-protein coupled receptor D1 (Homo sapiens) (UniProt Q6QNK2); experiment: RLU of GPR133 at 1.0 µM in the […] PRESTO-Tango GPCRome screen; details: Compound concentration 1.0 uM
# [33] = target: CX3C chemokine receptor 1 (Homo sapiens) (UniProt P49238); experiment: RLU of CX3C1 at 1.0 µM in the […] PRESTO-Tango GPCRome screen; details: Compound concentration 1.0 uM
# [34] = target: G-protein coupled bile acid receptor 1 (Homo sapiens) (UniProt Q8TDU6); experiment: RLU of GPBA at 1.0 µM in the […] PRESTO-Tango GPCRome screen; details: Compound concentration 1.0 uM
# [35] = target: Adenosine receptor A2a (Homo sapiens) (UniProt P29274); experiment: RLU of ADORA2A at 1.0 µM in the […] PRESTO-Tango GPCRome screen; details: Compound concentration 1.0 uM
# Sequence of Adenosine receptor A2a (Homo sapiens) (P29274 whole entry): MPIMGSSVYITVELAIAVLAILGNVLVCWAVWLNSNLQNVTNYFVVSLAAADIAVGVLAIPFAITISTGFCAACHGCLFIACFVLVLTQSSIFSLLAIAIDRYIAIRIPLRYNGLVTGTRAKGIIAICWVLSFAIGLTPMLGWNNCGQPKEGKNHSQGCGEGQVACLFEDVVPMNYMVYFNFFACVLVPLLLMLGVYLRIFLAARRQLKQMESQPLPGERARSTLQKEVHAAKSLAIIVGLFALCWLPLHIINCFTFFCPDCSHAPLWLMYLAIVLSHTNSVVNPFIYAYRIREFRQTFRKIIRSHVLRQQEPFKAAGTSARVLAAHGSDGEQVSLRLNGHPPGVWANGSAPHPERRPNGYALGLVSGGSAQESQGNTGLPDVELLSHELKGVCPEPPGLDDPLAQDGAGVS
# [36] = target: T1, Type-1 angiotensin II receptor; experiment: IP-One assay (AGTR1), antagonist mode at up to 50 µM ( vs. 10 nM Val5-Angiotensin II); type: functional; set-up: compound concentration < 50 uM
# Sequence of G-protein coupled receptor 55 (Homo sapiens) (Q9Y2T6 whole entry): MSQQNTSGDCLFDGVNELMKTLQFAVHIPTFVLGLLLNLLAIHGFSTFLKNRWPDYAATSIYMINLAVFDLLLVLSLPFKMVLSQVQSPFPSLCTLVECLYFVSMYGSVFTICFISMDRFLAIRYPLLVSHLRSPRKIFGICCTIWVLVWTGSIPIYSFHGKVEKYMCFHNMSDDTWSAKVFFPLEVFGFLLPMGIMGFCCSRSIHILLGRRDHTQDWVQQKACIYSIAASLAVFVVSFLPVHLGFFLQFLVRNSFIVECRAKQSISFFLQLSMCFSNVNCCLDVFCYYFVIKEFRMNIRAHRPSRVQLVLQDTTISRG
structure (smiles),measurement,setting,value
CCCCC(=O)N1CC2(C1)CN(c1ccccc1-c1nnn[nH]1)C2,RLU,[1],602000
same,RLU,[2],1170
same,RLU,[3],4830
same,EC50,[4],> 50 µM (not active)
same,RLU,[5],-5260
same,RLU,[6],435000
same,RLU,[7],109
same,RLU,[8],82.9
same,RLU,[9],1140
same,RLU,[10],3970
same,RLU,[11],4170
same,RLU,[12],10100
same,RLU,[13],1530
same,RLU,[14],2840
same,RLU,[15],1530
same,RLU,[16],963
same,RLU,[17],-9110
same,RLU,[18],-82.8
same,RLU,[19],8020
same,RLU,[20],14100
same,RLU,[21],-270
same,RLU,[22],-71.4
same,RLU,[23],-9420
same,RLU,[24],4360
same,RLU,[25],8350
same,RLU,[26],-1510
same,RLU,[27],506
same,RLU,[28],1400
same,RLU,[29],5570
same,RLU,[30],-114
same,RLU,[31],-2780
same,RLU,[32],-2660
same,RLU,[33],-3290
same,RLU,[34],275
same,RLU,[35],1000
same,EC50,[36],> 50 µM (not active)
